Read-outs that look alike come from different tables or passages of the source.
Legend:
[1] = molecular target: T1, human recombinant serotonin (5-Hydroxytryptamine) 5-HT7 receptor (Homo sapiens, UniProt P34969); test: Serotonin 5-HT7 radioligand binding ([3H]LSD); settings: compound at 0.1 μM; for inhibition at 0.1 µM: read-out: Inhibition of ligand binding, Serotonin 5-HT7 (percent inhibition of specific binding)
T1 construct: expressed in transfected cells; host or cells: CHO
Protocol: Lysergic acid diethylamide (LSD) for 120 min. at 25° C. […] Receptor proteins were filtered and washed, the filters were then counted to determine [^3H]LSD specifically bound.

[2] = molecular target: T2, human recombinant serotonin (5-Hydroxytryptamine) 5-HT5A receptor (Homo sapiens, UniProt P47898); test: Serotonin 5-HT5A radioligand binding ([3H]LSD); settings: compound at 0.1 μM
T2 construct: expressed in transfected cells; host or cells: CHO-K1
T2 sequence (P47898 whole entry): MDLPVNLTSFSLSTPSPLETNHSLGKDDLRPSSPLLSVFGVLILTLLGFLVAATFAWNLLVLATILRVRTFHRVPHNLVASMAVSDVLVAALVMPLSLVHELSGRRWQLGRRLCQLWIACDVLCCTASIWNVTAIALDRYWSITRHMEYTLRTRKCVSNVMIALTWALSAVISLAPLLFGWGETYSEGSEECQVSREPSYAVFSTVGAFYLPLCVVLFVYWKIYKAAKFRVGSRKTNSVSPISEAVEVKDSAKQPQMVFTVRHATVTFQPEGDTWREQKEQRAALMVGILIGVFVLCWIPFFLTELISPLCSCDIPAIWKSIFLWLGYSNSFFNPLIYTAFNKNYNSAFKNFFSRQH
Protocol: Compounds of the invention were incubated with 1.7 nM [^3H]Lysergic acid diethylamide (LSD) for 60 min at 37° C. […] Receptor proteins were filtered and washed, the filters were counted to determine [^3H]LSD specifically bound.

[3] = molecular target: T3, human recombinant serotonin (5-Hydroxytryptamine) 5-HT6 receptor (Homo sapiens, UniProt P50406); test: Serotonin 5-HT6 radioligand binding ([3H]LSD); settings: compound at 0.1 μM; for inhibition at 0.1 µM: read-out: Inhibition of ligand binding, Serotonin 5-HT6 (percent inhibition of specific binding)
T3 construct: expressed in transfected cells; host or cells: HeLa
T3 sequence (P50406 whole entry): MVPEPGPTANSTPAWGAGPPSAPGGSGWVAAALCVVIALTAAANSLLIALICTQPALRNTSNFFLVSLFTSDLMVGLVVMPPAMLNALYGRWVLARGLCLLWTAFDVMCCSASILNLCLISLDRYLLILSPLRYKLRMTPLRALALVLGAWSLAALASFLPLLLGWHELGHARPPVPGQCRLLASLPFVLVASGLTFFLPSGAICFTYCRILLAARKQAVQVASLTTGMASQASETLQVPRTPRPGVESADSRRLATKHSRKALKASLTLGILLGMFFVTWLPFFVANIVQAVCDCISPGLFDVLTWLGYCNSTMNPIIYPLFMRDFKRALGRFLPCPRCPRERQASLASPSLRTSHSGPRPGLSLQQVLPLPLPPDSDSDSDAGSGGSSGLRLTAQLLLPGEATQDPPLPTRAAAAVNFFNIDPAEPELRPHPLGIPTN
Source text: Receptor proteins were filtered and washed, the filters were then counted to determine [3H]LSD specifically bound.

[4] = molecular target: T4, human recombinant histamine H1 receptor (Homo sapiens, UniProt P35367); test: Histamine H1 radioligand binding ([3H]Pyrilamine); settings: read-out: Histamine H1 Binding (1 μM), percent inhibition of specific binding; compound at 1 μM; 1.2 nM [3H]Pyrilamine
T4 construct: expressed in transfected cells; host or cells: CHO-K1
T4 sequence (P35367 whole entry): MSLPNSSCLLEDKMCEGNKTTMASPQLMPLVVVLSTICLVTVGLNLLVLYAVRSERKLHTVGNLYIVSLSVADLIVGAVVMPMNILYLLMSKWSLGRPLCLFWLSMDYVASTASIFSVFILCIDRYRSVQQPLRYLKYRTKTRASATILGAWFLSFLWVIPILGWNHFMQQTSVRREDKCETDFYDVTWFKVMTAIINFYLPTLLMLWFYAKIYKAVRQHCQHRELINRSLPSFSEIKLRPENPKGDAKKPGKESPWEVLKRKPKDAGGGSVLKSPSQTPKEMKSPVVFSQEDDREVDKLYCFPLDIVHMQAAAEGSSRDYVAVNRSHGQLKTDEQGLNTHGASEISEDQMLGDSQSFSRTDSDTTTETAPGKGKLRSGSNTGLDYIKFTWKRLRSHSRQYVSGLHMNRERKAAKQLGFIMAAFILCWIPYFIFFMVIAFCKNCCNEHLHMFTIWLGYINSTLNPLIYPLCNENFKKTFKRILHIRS
Protocol: To evaluate in radioligand binding assays the activity of compounds of the invention, human recombinant histamine H1 receptor expressed in Chinese hamster ovary (CHO) K1 cells (De Backer, M. et al, Biochem. Biophys. Res. Comm. 197(3):1601, 1993) in a modified Tris-HCl buffer (50 mM Tris-HCl, pH 7.4, 2 mM MgCl2, 100 mM NaCl, 250 mM Sucrose) was used. […] Non-specific binding was estimated in the presence of 1 μM Pyrilamine. Receptor proteins were filtered and washed, the filters were then counted to determine [^3H]Pyrilamine specifically bound. […] Biochemical assay results are presented as the percent inhibition of specific binding in Table 2.

[5] = molecular target: T5, rat adrenergic α1A receptor (Rattus norvegicus, UniProt P43140); test: Adrenergic α1A radioligand binding ([3H]Prazosin); settings: read-out: Adrenergic (0.1 μM) a1A, percent inhibition of specific binding; compound at 0.1 μM; 0.25 nM [3H]Prazosin
T5 construct: rat adrenergic α1A receptor obtained from Wistar Rat submaxillary glands; from tissue; host or cells: Wistar rat submaxillary glands
T5 sequence (P43140 1-466): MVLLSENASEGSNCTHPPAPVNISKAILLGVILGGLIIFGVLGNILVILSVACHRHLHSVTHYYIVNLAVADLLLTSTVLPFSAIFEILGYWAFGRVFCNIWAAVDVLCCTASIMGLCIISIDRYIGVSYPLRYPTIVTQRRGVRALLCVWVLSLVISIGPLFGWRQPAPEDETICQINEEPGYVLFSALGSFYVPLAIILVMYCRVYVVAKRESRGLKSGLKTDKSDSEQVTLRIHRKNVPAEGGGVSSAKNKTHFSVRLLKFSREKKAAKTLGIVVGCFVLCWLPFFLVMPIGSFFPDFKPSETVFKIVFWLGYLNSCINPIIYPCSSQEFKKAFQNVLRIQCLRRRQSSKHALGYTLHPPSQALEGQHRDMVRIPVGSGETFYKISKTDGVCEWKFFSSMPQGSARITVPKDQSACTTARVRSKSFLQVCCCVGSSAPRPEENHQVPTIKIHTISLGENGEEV
Protocol: To evaluate in radioligand binding assays the activity of compounds of the invention, rat adrenergic α1A receptor obtained from Wistar Rat submaxillary glands (Michel, A. et al, Br. J. Pharmacol. 98:883, 1989) in a modified Tris-HCl buffer (50 mM Tris-HCl buffer, pH 7.4, 0.5 mM EDTA) was used. Compounds of the invention were incubated with 0.25 nM [^3H]Prazosin for 60 min at 25° C. Non-specific binding was estimated in the presence of 10 μM phentolamine Receptor proteins were filtered and washed, the filters were then counted to determine [^3H]Prazosin specifically bound. […] Compounds of the invention were tested in this biochemical assay and percent inhibition of specific binding was determined.

[6] = molecular target: T6, human recombinant serotonin (5-Hydroxytryptamine) 5-HT2C receptor (Homo sapiens, UniProt P28335); test: Serotonin 5-HT2C radioligand binding ([3H]Mesulergine); settings: compound at 0.1 μM; read-out: Inhibition of ligand binding, Serotonin 5-HT2C (percent inhibition of specific binding)
T6 construct: expressed in transfected cells; host or cells: CHO-K1
T6 sequence (P28335 33-458): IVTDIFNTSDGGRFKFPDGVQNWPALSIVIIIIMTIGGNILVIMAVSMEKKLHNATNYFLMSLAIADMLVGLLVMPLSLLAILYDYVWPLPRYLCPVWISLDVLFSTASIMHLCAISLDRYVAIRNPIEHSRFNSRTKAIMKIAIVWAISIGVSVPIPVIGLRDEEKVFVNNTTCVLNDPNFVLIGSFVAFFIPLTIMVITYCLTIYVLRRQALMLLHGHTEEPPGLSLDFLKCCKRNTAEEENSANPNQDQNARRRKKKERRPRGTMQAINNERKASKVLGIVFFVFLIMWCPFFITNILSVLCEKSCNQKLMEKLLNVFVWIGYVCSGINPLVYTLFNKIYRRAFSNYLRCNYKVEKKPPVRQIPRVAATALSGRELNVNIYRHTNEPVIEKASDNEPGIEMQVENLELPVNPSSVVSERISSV
Protocol: Compounds of the invention were incubated with 1 nM [^3H]Mesulergine for 60 min at 25° C. Non-specific binding was estimated in the presence of 1 μM Mianserin. Receptor proteins were filtered and washed, the filters were then counted to determine [^3H]Mesulergine specifically bound.

[7] = molecular target: T7, human recombinant serotonin (5-Hydroxytryptamine) 5-HT2A receptor (Homo sapiens, UniProt P28223); test: Serotonin 5-HT2A radioligand binding ([3H]Ketanserin); settings: read-out: Inhibition of ligand binding, Serotonin 5-HT2A (percent inhibition of specific binding)
T7 construct: expressed in transfected cells; host or cells: CHO-K1
T7 sequence (P28223 whole entry): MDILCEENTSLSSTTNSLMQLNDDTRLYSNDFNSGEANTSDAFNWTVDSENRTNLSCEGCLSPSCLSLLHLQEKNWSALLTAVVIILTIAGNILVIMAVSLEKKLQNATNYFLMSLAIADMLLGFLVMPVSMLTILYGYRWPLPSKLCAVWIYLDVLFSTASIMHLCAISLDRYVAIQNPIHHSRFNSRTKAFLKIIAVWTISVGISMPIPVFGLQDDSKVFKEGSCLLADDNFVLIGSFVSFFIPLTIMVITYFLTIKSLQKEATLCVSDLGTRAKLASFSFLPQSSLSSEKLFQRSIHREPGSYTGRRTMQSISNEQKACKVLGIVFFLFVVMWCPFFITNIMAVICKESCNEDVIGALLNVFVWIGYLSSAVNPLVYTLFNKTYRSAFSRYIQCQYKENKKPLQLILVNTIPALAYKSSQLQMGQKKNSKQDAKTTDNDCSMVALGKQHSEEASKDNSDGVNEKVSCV
Protocol: Compounds of the invention were incubated with 0.5 nM [^3H]Ketanserin for 60 min at 25° C. Non-specific binding was estimated in the presence of 1 μM Mianserin. Receptor proteins were filtered and washed, the filters were then counted to determine [^3H]Ketanserin specifically bound.

[8] = molecular target: T8, human recombinant dopamine D2L receptor (Homo sapiens, UniProt P14416); test: Dopamine D2L radioligand binding ([3H]Spiperone); settings: 0.16 nM [3H]Spiperone; for inhibition at 1 µM: read-out: Dopamine D2L (1 μM), percent inhibition of specific binding, compound at 1 μM
T8 construct: expressed in transfected cells; host or cells: CHO
T8 sequence (P14416 whole entry): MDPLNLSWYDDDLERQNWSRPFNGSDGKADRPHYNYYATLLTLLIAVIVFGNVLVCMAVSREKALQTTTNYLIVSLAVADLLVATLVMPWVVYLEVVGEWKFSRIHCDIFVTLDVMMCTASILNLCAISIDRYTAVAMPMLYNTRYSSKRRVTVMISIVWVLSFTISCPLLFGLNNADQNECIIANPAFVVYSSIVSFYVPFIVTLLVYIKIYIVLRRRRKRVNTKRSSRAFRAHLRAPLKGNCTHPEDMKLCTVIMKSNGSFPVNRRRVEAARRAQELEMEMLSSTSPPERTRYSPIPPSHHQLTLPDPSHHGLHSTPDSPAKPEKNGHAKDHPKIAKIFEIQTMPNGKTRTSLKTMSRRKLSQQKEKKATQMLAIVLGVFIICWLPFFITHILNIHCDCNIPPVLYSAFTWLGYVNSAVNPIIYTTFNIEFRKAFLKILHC
Protocol: Non-specific binding was estimated in the presence of 10 μM Haloperidol. Receptor proteins were filtered and washed, the filters were then counted to determine [^3H]Spiperone specifically bound.

[9] = molecular target: T9, human recombinant adrenergic α2C receptor (Homo sapiens, UniProt P18825); test: Adrenergic α2C radioligand binding ([3H]MK-912); settings: read-out: Adrenergic (0.1 μM) a2C, percent inhibition of specific binding; compound at 0.1 μM; 1 nM [3H]MK-912
T9 construct: expressed in transfected cells; host or cells: insect Sf9 cells
T9 sequence (P18825 1-462): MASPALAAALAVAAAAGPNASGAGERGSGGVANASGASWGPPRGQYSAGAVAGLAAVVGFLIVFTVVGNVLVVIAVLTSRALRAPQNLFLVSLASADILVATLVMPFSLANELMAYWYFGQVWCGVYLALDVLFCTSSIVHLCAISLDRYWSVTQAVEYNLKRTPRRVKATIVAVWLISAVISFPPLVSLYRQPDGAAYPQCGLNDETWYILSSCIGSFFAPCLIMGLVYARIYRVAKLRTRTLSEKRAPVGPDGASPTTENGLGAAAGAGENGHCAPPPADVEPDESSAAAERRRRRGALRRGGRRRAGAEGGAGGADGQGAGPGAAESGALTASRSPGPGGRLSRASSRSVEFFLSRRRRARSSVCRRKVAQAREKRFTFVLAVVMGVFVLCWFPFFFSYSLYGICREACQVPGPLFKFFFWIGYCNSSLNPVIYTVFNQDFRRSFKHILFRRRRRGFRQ
Protocol: To evaluate in radioligand binding assays the activity of compounds of the invention, human recombinant adrenergic α2C receptor expressed in insect Sf9 cells (Uhlen, S. et al, J. Pharmacol. Exp. Ther. 271:1558, 1994) in a modified Tris-HCl buffer (50 mM Tris-HCl, pH 7.4, 12.5 mM MgCl2, 2 mM EDTA) was used. Compounds of the invention were incubated with 1 nM [^3H]MK-912 for 60 min at 25° C. Non-specific binding was estimated in the presence of 10 μM WB-4101. Receptor proteins were filtered and washed, the filters were then counted to determine [^3H]MK-912 specifically bound. […] Compounds of the invention were tested in this biochemical assay and percent inhibition of specific binding was determined.

T1 sequence (P34969 whole entry): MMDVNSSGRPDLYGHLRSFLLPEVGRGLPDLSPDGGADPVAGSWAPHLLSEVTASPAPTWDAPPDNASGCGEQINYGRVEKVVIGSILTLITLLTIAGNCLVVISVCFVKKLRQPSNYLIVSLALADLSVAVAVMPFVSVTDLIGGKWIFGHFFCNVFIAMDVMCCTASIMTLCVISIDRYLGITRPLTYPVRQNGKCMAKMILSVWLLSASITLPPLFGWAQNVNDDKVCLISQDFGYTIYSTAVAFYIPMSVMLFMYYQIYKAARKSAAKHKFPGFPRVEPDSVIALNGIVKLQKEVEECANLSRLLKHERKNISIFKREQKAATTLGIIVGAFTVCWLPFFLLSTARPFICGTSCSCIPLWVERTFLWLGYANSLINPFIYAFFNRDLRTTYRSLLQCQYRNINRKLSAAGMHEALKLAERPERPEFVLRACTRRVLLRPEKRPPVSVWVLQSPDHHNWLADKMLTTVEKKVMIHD

SMILES | Inhibition of ligand binding, Serotonin 5-HT7 (percent inhibition of specific binding) [1] | Inhibition of ligand binding, Serotonin 5-HT5A (percent inhibition of specific binding) [2] | Inhibition of ligand binding, Serotonin 5-HT6 (percent inhibition of specific binding) [3] | inhibition at 1 µM [4] | inhibition at 0.1 µM [5] | inhibition at 0.1 µM [6] | inhibition at 0.1 µM [7] | inhibition at 1 µM [8] | inhibition at 0.1 µM [9] | inhibition at 0.1 µM [1] | inhibition at 0.1 µM ([2]; read-out: Inhibition of ligand binding, Serotonin 5-HT5A (percent inhibition of specific binding)) | inhibition at 0.1 µM [3] | inhibition at 0.1 µM ([7]; compound at 0.1 μM) | inhibition at 0.1 µM ([8]; read-out: Dopamine D2L (0.1 μM), percent inhibition of specific binding, compound at 0.1 μM)
Cc1ccc2c(c1)c1c(n2-c2ccccc2-c2ccc(O)nc2)CCN(C)C1 [Compound No. 80, 5-(2-(2,8-dimethyl-3,4-dihydro-1H-pyrido[4,3-b]indol-5(2H)-yl)phenyl)pyridin-2-ol] | 41% | 25% | −1% | 28% | 15% | 11% | 28% | 2% | -6% | – | – | – | – | –
Cc1cc(C)c2c(c1)c1c(n2-c2cscc2-c2ccncc2)CCN(C)C1 [Compound No. 149] | – | – | – | -5% | 14% | – | – | – | 2% | 11% | -13% | 93% | 45% | 5%
Cc1ccc2c(c1)c1c(n2-c2ccsc2)CCN(C)C1 [Compound 14, 2,8-dimethyl-5-thiophen-3-yl-2,3,4,5-tetrahydro-1H-pyrido[4,3-b]indole] | – | – | – | 86% | 30% | 95% | – | 50% | 4% | 61% | – | 82% | 97% | –
